Patent US20130203730A1, “BENZOTHIAZOLES AS GHRELIN RECEPTOR MODULATORS” (AstraZeneca AB, priority 2007, published 2013)

How the values were obtained:
human GHS receptor [1] = molecular target: T1, human GHS receptor (Homo sapiens, UniProt Q92847); assay: h bind IC50 (binding assay, hBindingIC50)
T1 construct: expressed in transfected cells

human GHS receptor [2] = molecular target: T1, human GHS receptor; assay: Ghrelin IP1 agonist assay (IP1 HTRF) in HEK293s cells expressing human GHS receptor; type: cell-based
Procedure: In HEK293s cells stably expressing human GHS receptor (In-house), agonist activity was assessed by measuring intracellular myo-Inositol 1 phosphate (IP1) using the IP1 HTRF assay kit (Cisbio International).
Cells were harvested using accutase (Sigma), spun down at 1000 rpm for 5 minutes and resuspended in stimulation buffer (as above) containing 0.02% fatty acid free BSA at a density of 1.43E6 cells/ml.

T1 sequence (Q92847 whole entry): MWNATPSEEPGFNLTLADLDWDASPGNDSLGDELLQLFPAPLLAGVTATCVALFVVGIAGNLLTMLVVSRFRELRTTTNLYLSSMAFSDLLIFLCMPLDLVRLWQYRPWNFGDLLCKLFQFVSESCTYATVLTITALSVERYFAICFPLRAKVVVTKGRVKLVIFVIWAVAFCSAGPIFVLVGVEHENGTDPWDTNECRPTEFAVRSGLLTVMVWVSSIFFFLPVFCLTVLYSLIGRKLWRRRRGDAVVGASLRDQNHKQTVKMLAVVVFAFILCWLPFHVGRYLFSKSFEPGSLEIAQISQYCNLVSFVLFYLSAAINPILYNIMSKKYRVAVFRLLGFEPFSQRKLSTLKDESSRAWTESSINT

CCS(=O)(=O)c1ccccc1C(=O)NC(=O)Nc1nc2ccc(S(C)(=O)=O)cc2s1 [Example 135, 2-Ethylsulfonyl-N-[(6-methylsulfonylbenzothiazol-2-yl)carbamoyl]benzamide]
IC50 (human GHS receptor [1]): 2220 nM
Emax (human GHS receptor [2]; HEK293S, 2 h, agonist effect as % maximal effect of GHRP-6 (5 μM), read-out: h IP1 ag %): 18.2%
EC50 (human GHS receptor [2]; HEK293s cells stably expressing human GHS receptor, read-out: h IP1 ag EC50): 3680 nM
